Source: the METLIN SMRT retention time set (Domingo-Almenara et al. 2019)

Assay: gradient 5% acetonitrile 3 min, to 50% in 2 min, to 85% in 15 min, held 3 min, 100 µL/min
Details: column: Zorbax Extend-C18 2.1 x 50 mm; eluents: water / acetonitrile, 0.1% formic acid
Method in brief: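 Values are retention times taken from adduct peaks that software picked and an analyst inspected. The pure standards were run as mixtures of ~100 molecules on HPLC linked to a quadrupole time-of-flight mass spectrometer, in positive and negative ionization mode. A Zorbax Extend-C18 column (2.1 × 50 mm, 1.8 μm) was used at 100 μL/min with water and acetonitrile, each including 0.1% formic acid.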

SMILES | RP-LC retention time
CCOc1ccccc1-c1noc(Cn2c(=O)n(CCCOC)c(=O)c3ccccc32)n1 | 1060 s
Cc1ccc(CNC(=O)C2CCCCC(=O)N2)o1 (stereo not drawn) | 636 s
O=C(NCCNC(=O)c1ccc(N2CCOCC2)nn1)c1ccc(NC(=O)C2CC2)cc1 | 599 s
Cc1ccc(NC(=O)CN2C(=O)CCc3cc(S(=O)(=O)N4CCCCC4C)ccc32)cc1C (stereo not drawn) | 720 s
CCc1sc(NC(=O)c2cc3c([nH]c2=O)CC(C)(C)CC3=O)nc1-c1ccc(C)c(C)c1 | 1150 s
CC(C)n1c(=O)c2ccccc2n(Cc2nc(-c3cccc(Cl)c3)no2)c1=O | 1190 s
CC(C)S(=O)(=O)N1CCC(CCOc2ccccc2)C1 (stereo not drawn) | 980 s
CCN1CCC(N(Cc2cccs2)C(=O)Nc2ccccc2Br)CC1 | 679 s
COc1ccc(-n2ccn3cc(-c4cc(OC)ccc4OC)nc3c2=O)cc1 | 828 s
CNC(=O)c1c(C)nn(-c2ccccc2)c1-n1cccc1 | 761 s
O=C(Cc1csc2nc(-c3cccc(Br)c3)cn12)Nc1ccc(F)cc1 | 959 s
CCn1ccc2sc(C)c(C(=O)N3CCN(CC(C)C)CC3)c2c1=O | 574 s
COc1ccc(Nc2nc(-c3nnn(-c4ccc(Br)cc4F)c3C)ns2)cc1 | 1080 s
CCOc1ccccc1CNC(=O)C1CCCN(c2nccnc2Sc2ccccc2)C1 (stereo not drawn) | 1110 s
O=C(Nc1ccc(Br)cc1)N1CCC(N2CCN(Cc3ccccc3)C2=O)CC1 | 893 s
c1ccc2c(-c3nnc(C4CC4)o3)nnc(NC3CCCCC3)c2c1 | 793 s
CCCNC(=O)c1nc(N2CCSCC2)c2cnn(C)c2n1 | 719 s
CCOc1nc2ccccc2nc1N1CCCC(C(=O)Nc2ccc(Br)cc2C)C1 (stereo not drawn) | 1320 s
COc1cccc(-c2csc(Cc3nc(-c4cccs4)no3)n2)c1 | 1020 s
COC(=O)N1CCN(CCNC(=O)C2(c3ccc(Cl)cc3)CCCC2)CC1 | 592 s
CC(C)Cc1ccc(S(=O)(=O)N2CCc3c(c(-c4nnc(-c5ccccc5F)o4)nn3C)C2)cc1 | 1140 s
CCc1cc(=O)n(CC(=O)Nc2cc(F)ccc2F)c(N2CCOCC2)n1 | 770 s
Cc1c(Cl)cccc1NC(=O)N(C)CC1CCOC1 (stereo not drawn) | 720 s

SMILES | RP-LC retention time
O=C(NCC1CCCO1)C1CCN(Cc2cc3ccccc3n2Cc2ccccc2Cl)CC1 (stereo not drawn) | 731 s
Cc1cc(-c2nnc(C3CCC3)o2)c(C)n1CC(=O)Nc1ccccc1F | 887 s
CCN(CC)c1nc2cc(C(=O)NCC3CC3)ccc2c(=O)n1Cc1ccc(C)cc1 | 1090 s
COc1ccc(NC(=O)Cn2nc3c(Oc4ccccc4Cl)nccn3c2=O)cc1 | 859 s
COC(=O)C1=CN(c2ccc(C)c(F)c2)c2cc(F)ccc2S1(=O)=O | 920 s
Cc1ccc(S(=O)(=O)Nc2cccc(-c3cn4cccc(C)c4n3)c2)cc1 | 674 s
Cc1ccc(CCNC(=O)c2cc3sccc3n2Cc2ccc(Cl)cc2)cc1 | 1270 s
Clc1ccc(C(OCCN2CCCCC2)c2ccccc2)cc1 (stereo not drawn) | 850 s
Cc1[nH]c(C(=O)N2CCC(CC(=O)NCCCN3CCCC(C)C3)CC2)c(C)c1C (stereo not drawn) | 610 s
CN(C(=O)Cn1nc(Cc2cccnc2)c2ccccc2c1=O)C1CCCCC1 | 640 s
CC(C)NC(=O)CCNc1c(-c2ccc(F)cc2)nc2cnccn12 | 616 s
O=C(Nc1cccc2nsnc12)C1CCN(c2ccc(-c3cccs3)nn2)CC1 | 668 s
Cc1cc([N+](=O)[O-])nn1CC(=O)Nc1c(F)cc(F)cc1Br | 762 s
CCc1noc(-c2cc(=O)n(CC(=O)NCc3ccccc3F)c3ccccc23)n1 | 890 s
COc1ccc(CC(=O)N2CCC3(CC2)NC(=O)c2cc(C)ccc2N3C)cc1 | 769 s
CC(NC(=O)Cn1c(=O)c2cccn2c2ccccc21)c1ccc2c(c1)OCCO2 (stereo not drawn) | 794 s
Cc1ccccc1S(=O)(=O)N1CCC(c2noc(-c3ccccn3)n2)C1 (stereo not drawn) | 900 s
Cc1[nH]c(C(=O)N2CCCC(C(=O)N3CCN(c4ccccc4)CC3)C2)c(C)c1C (stereo not drawn) | 853 s
O=C(c1nnc(-c2ccc(S(=O)(=O)N3CCCC3)cc2)o1)N1CCCCC1 | 847 s
O=C(NCCCN1CCOCC1)C1CCc2sc(C(=O)N3CCCC3)cc2C1 (stereo not drawn) | 576 s
O=C(Cn1nc2c(cc1=O)CCCC2)Nc1ccc(N2CCCS2(=O)=O)cc1 | 668 s
Clc1ccc(-c2noc(CN3CCOCC3)n2)cc1 | 775 s
O=C(Cn1c(=O)c2cccn2c2ccc(F)cc21)NC1CC1 | 685 s

SMILES | RP-LC retention time
Cc1cc(OCC(=O)Nc2ccccc2Cl)nc(N2CCN(c3ccccc3)CC2)n1 | 993 s
CCCOc1nc2ccccc2nc1N1CCCC(C(=O)Nc2cc(C)cc(C)c2)C1 (stereo not drawn) | 1390 s
Cc1cccc(NC(=O)c2cnn3c2CCCC3)c1 | 776 s
COc1cc(Nc2nc3c(s2)CCCC3c2ccc(F)cc2)ccc1-n1cnc(C)c1 (stereo not drawn) | 1010 s
CC(NC(=O)C1CC(=O)N(c2ccc3c(c2)CCN3C(=O)C2CC2)C1)c1ccccc1 (stereo not drawn) | 740 s
COc1ccccc1-c1nc2sc3c(c2c(=O)[nH]1)CCCC3 | 1150 s
Cc1ccccc1C1CC(=O)c2cnc(N3CCC(C(N)=O)CC3)nc2C1 (stereo not drawn) | 750 s
CCOc1ncccc1CNC(=O)CNC(C)=O | 568 s
COc1ccc(C2C(C(=O)N3CCOCC3)=C(C)NC3=C2C(=O)CCC3)cc1Br (stereo not drawn) | 653 s
COc1ccc(N2CCN(CC(=O)N3CCC(C(N)=O)CC3)CC2)cc1 | 885 s
CN1CCN(C(CNS(=O)(=O)c2ccccc2F)c2ccsc2)CC1 (stereo not drawn) | 570 s
O=C(Cn1ncc2c(N3CCN(c4ccccn4)CC3)ncnc21)Nc1ccc(Br)cc1 | 652 s
COC(=O)c1ccccc1Nc1c(-c2ccc(C)cc2)nc2cnc(Br)cn12 | 1190 s
CCCc1ccc(S(=O)(=O)N2CCC3(CCC(CN4CCN(C)CC4)O3)CC2)cc1 (stereo not drawn) | 654 s
O=C1NCCCCCCN(C(=O)Nc2ccc(F)cc2)[C@H]2CCC[C@@H]12 | 780 s
COc1ccc(-c2nnc(-c3cc(S(=O)(=O)N4CCCCCC4)ccc3Cl)o2)cc1 | 1150 s
CCCCSc1cc(C)nc(N)n1 | 698 s
CSc1cccc(NC(=O)C2CCCN(C(=O)Cc3cccc4ccccc34)C2)c1 (stereo not drawn) | 1040 s
COc1ncc(C(=O)NCCc2ccc(Cl)cc2)cn1 | 788 s
Cc1cc(N2CCC(NC(=O)NCc3cccc(F)c3)C2=O)ccc1F (stereo not drawn) | 903 s
CN1CCN(CC2CCC3(CCN(S(=O)(=O)c4ccc(C(C)(C)C)cc4)CC3)O2)CC1 (stereo not drawn) | 665 s
CCOC(=O)c1c(C)[nH]c(CCC(=O)NCCC(C)C)c1C | 816 s
